Values of other authors, collected in patent US20040146462A1, “Contrast agents” (priority 1998, published 2004).

Tested on: coronary blood flow in healthy myocardial tissue
Details: administration of adenosine

Nc1ncnc2c1ncn2[C@@H]1O[C@H](CO)[C@@H](O)[C@H]1O [adenosine]
increase in coronary blood flow in healthy myocardial tissue: in excess of fourfold
